# Literature values in patent publication US9517268B2, “Process for producing inorganic particulate material” (MERCK PATENT GMBH, priority 2011, dated 2016).
# Conditions: pH 7
structure (smiles),measurement,value
CCC(C)n1ncn(-c2ccc(N3CCN(c4ccc(OCC5COC(Cn6cncn6)(c6ccc(Cl)cc6Cl)O5)cc4)CC3)cc2)c1=O (stereo not shown) [Itraconazole],solubility in aqueous solutions,1 ng/mL
